Assay results reported in patent publication EP4178959B1, “NITROGEN HETEROCYCLIC CYTOKININ DERIVATIVES, COMPOSITIONS CONTAINING THESE DERIVATIVES AND USE THEREOF” (Univerzita Palackého v Olomouci, priority 2020, dated 2022).

Columns and labels:
[1] = system: Arabidopsis thaliana; experiment: Effect on the root proliferation of Arabidopsis thaliana; format: in vivo, Arabidopsis thaliana (ecotype Columbia); conditions: for Concentration with highest activity: number of lateral roots; for Activity (%) [10^-8 mol.l^-1 Kin = 100%]: number of lateral roots (% of control), at concentration with highest activity
Procedure: Arabidopsis thaliana seeds (ecotype Columbia) were sterilized with 70% ethanol and 0.1% Triton X-100 and then washed with 70% ethanol containing 0.01% Triton X-100. Then the seeds were transferred to vertical square petri dishes (11 seeds per dish) on a solid medium consisting of MS (2.15 g/l), MES (0.5 g/l), sucrose (1 g/l), agar (11 g/l), buffered to pH 5.8, and various concentrations of tested compounds. The compounds were dissolved in DMSO, thus 0.05% DMSO was used as a control solution. After incubation for 3 days in darkness at 4°C, the seeds were germinated and grown in an environmental chamber (fluorescence light intensity 150 µE m^-2 s^-1, humidity 55%, 16 h day/8 h night, 22°C). […] The number of lateral roots was scored under a stereomicroscope. […] In addition, compounds with tetrahydropyranyl protection at N9 slightly increase the number of emerged lateral roots (Fig 3C). […] Table 6: […]

[2] = Calcein AM cytotoxicity assay, BJ cells; conditions: human; for CC50 at 72 h: bj fibroblasts
Procedure: (§1) All compound concentrations were examined in duplicates. […] Zero cytotoxicity is a basic prerequisite for the use of these substances in cosmetical applications. To assess the antitumor activity, the toxicity of new derivatives on panels containing cell lines of different histogenic and species origin was tested (Table 5). […] The compounds listed in Table 5 can be divided into 2 groups.
(§2) The first group contains "classical cytokinins" represented by 6-substituted purines (their effects are already known). The second group includes novel 2-fluoro-N6-substituted-9-(2-oxacycloalkyl)-9H-purine-6-amine derivatives. […] Low cytotoxicity (high IC50 value) of the compounds is the basic prerequisite for cosmetic and medical applications. […] Table 5: Cytotoxicity of novel compounds for different normal cell lines tested / IC50 (µmol/L)

[3] = system: excised wheat leaf tips; experiment: Senescence inhibition on winter wheat leaf segments (chlorophyll retention); parameters: species or system Triticum aestivum cv. Hereward; conditions: for Emax: Triticum aestivum, foliar, read-out: Activity (%) [10^-4mol.l^-1 KTHP = 100%]; for Emax / Activity (%) [10^-4mol.l^-1 KTHP = 100%]: retention of chlorophyll in excised wheat leaf tips, 96 h in the dark, at concentration with highest activity; for Concentration with highest activity: retention of chlorophyll
Procedure: Seeds of winter wheat, Triticum aestivum cv. Hereward, were washed under running water for 24 hours and then sown on vermiculite soaked with the Knop's solution. They were placed in the grow chamber at 25 °C with a 16/8 h light period at 50 μmol.m^-2.s^-1. After 7 days, the first leaf was fully developed and the second leaf had started to grow. A tip section of the first leaf, approximately 35 mm long, was removed from 5 seedlings and trimmed slightly to a combined weight of 100 mg. The basal ends of the five leaf tips were placed in the wells of a microtiter polystyrene plate containing 150 μl of the solution of the tested compound each. The entire plate was inserted into a plastic box lined with paper tissues soaked with distilled water to prevent leaf sections from drying out. […] The absorbance of the extract was recorded at 665 nm. In addition, chlorophyll extracts from fresh leaves and leaf tips incubated in deionised water were measured. From the obtained data, the concetration with the highest activity was selected for each compound tested. Relative activity of the compound at this concentration was calculated (Table 7). […] The values shown are means of five replicates and the whole experiment was repeated twice. The compounds to be tested were dissolved in dimethylsulfoxide (DMSO) and the solution brought up to 10^-3 M with distilled water. […] The compounds listed in Table 7 can be divided into 2 groups. The first group contains "classical 6,9-disubstituted purines (KTHP as a control)" known in prior art. […] Table 9: […]

[4] = Calcein AM cytotoxicity assay, NIH3T3 cells; conditions: mouse; for CC50 at 72 h: nih3t3 cells
Procedure: as §1, §2

[5] = Calcein AM cytotoxicity assay, B10A.4 cells; conditions: mouse; for CC50 at 72 h: b10a.4 macrophages
Procedure: as §1, §2

[6] = system: Zea mays seedlings; experiment: Effect on development of Zea mays seedlings (hydroponic); format: in vivo, Zea mays cv. CELLUX; conditions: for Root dry mass (%) [4 x 10^-8 mol.l^-1 Kin = 100%] / Shoot dry mass (%) [10^-6 mol.l^-1 Kin = 100%]: at concentration with highest activity
Procedure: Maize seeds (Zea mays cv. CELLUX) were imbibed in tap water and germinated on a wetted filter paper. After 3 days, the germinated seedlings were transferred to aerated hydroponic tanks filled with Hoagland's nutrient solution. The plants were grown in an environmental chamber with 16 h light period (250 μE m^-2 s^-1) at 27°C and 8 h dark period at 20°C. Tested compounds diluted in DMSO were added to nutrient solution immediately when seedlings were nested in the tanks or after two additional days of cultivation. Control plants were grown in parallel with addition of corresponding amount of DMSO (up to 0.01%). Root and leaf tissues of ten plants were harvested at different time points after the application of the compounds, immediately frozen in liquid nitrogen and used for cytokinin content and transcript level analysis. Length of primary root and the first leaf were determined with ruler on sets of twelve plants, each cultivated in the independent tank (for every cytokinin application repeated ten times). Dry mass of root system and the aerial part was determined after cutting off the kernel and desiccation in dryer for two days at 60°C. […] Fig. 4) and up to 1 micromolar concentration when more seedlings were in the solution (approx. 50 seedlings per 1 liter; Fig. 5). […] Table 7: […]

[7] = Cytotoxicity IC50, B10A.4, first column headed B10A.4
[8] = Cytotoxicity IC50, B10A.4, second column headed B10A.4

| Compound | CC50 at 72 h [2] [µM] | Concentration with highest activity [3] | Activity (%) [10^-4mol.l^-1 KTHP = 100%] [3] | CC50 at 72 h [4] [µM] | CC50 at 72 h [5, 7] [µM] | other results |
| --- | --- | --- | --- | --- | --- | --- |
| Fc1nc(NCc2ccccc2)c2ncn(C3CCCCO3)c2n1 (stereo not drawn) [Compound 64, 2-Fluoro-6-benzylamino-9-(tetrahydro-2H-pyran-2-yl)-9H-purine] | – | – | – | – | – | Concentration with highest activity [1]: 10^-6 mol.l^-1; Activity (%) [10^-8 mol.l^-1 Kin = 100%] [1]: 61.2 (± 3) %; IC50 at 72 h [2]: 124 µM; Emax [3]: 110%; IC50 at 72 h [4]: 128 µM; IC50 at 72 h [5, 7]: 121 µM; Root dry mass (%) [4 x 10^-8 mol.l^-1 Kin = 100%] [6]: 168.9 (± 16) %; Shoot dry mass (%) [10^-6 mol.l^-1 Kin = 100%] [6]: 108.9 (± 8) %; Concentration with highest activity ([6]; root dry mass): 10^-7 mol.1^-1; Concentration with highest activity ([6]; shoot dry mass): 10^-6 mol.1^-1 |
| CC(C)=CCNc1nc(F)nc2c1ncn2C1CCCO1 (stereo not drawn) [Compound 13] | > 167 | 10^-4 mol.l^-1 | 109.8 (± 13) % | > 167 | > 167 | CC50 at 72 h [5, 8]: > 167 µM; root elongation and lateral root proliferation (in words) ([6]; up to 1 µM concentration): does not inhibit root elongation and lateral root proliferation |
| Oc1cc(F)cc(CNc2nc(F)nc3c2ncn3C2CCCO2)c1 (stereo not drawn) [Compound 28] | – | – | – | – | – | Concentration with highest activity [1]: 10^-5 mol.l^-1; Activity (%) [10^-8 mol.l^-1 Kin = 100%] [1]: 49.3 (± 9) %; Root dry mass (%) [4 x 10^-8 mol.l^-1 Kin = 100%] [6]: 190.2 (± 20) %; Shoot dry mass (%) [10^-6 mol.l^-1 Kin = 100%] [6]: 111.8 (± 6) %; Concentration with highest activity ([6]; root dry mass): 10^-7 mol.1^-1; Concentration with highest activity ([6]; shoot dry mass): 10^-6 mol.1^-1 |
| Oc1ccoc1CNc1nc(F)nc2c1ncn2C1CCCO1 (stereo not drawn) [Compound 53] | > 167 | 10^-4 mol.l^-1 | 45 (± 13) % | > 167 | > 167 | – |
| COc1cc(CNc2nc(F)nc3c2ncn3C2CCCO2)cc(OC)c1 (stereo not drawn) [Compound 40] | > 167 | 10^-4 mol.l^-1 | 163 (± 8) % | > 167 | > 167 | – |
| COc1cc(CNc2nc(F)nc3c2ncn3C2CCCO2)cc(OC)c1O (stereo not drawn) [Compound 41] | > 167 | 10^-4 mol.l^-1 | 42 (± 13) % | > 167 | > 167 | – |
| Oc1cc(O)cc(CNc2nc(F)nc3c2ncn3C2CCCO2)c1 (stereo not drawn) [Compound 34] | > 167 | 10^-4 mol.l^-1 | 145 (± 12) % | > 167 | > 167 | – |
| Oc1ccc(CNc2nc(F)nc3c2ncn3C2CCCO2)cc1 (stereo not drawn) [Compound 16, 2-Fluoro-6-[(4-hydroxybenzyl)amino]-9-(tetrahydrofuran-2-yl)-9H-purine] | – | – | – | – | – | IC50 at 72 h [2]: > 167 µM; Emax [3]: 110%; IC50 at 72 h [4]: > 167 µM; IC50 at 72 h [5, 7]: > 167 µM |
| Oc1cc(Cl)cc(CNc2nc(F)nc3c2ncn3C2CCCO2)c1 (stereo not drawn) [Compound 27] | – | – | – | – | – | Concentration with highest activity [1]: 10^-5 mol.l^-1; Activity (%) [10^-8 mol.l^-1 Kin = 100%] [1]: 45.7 (± 6) %; Root dry mass (%) [4 x 10^-8 mol.l^-1 Kin = 100%] [6]: 194.5 (± 18) %; Shoot dry mass (%) [10^-6 mol.l^-1 Kin = 100%] [6]: 116.3 (± 7) %; Concentration with highest activity ([6]; root dry mass): 10^-7 mol.1^-1; Concentration with highest activity ([6]; shoot dry mass): 10^-6 mol.1^-1 |
| Cc1cc(CNc2nc(F)nc3c2ncn3C2CCCO2)ccc1O (stereo not drawn) [Compound 51] | > 167 | 10^-4 mol.l^-1 | 19 (± 2) % | > 167 | > 167 | – |
| COc1cccc(CNc2nc(F)nc3c2ncn3C2CCCO2)c1O (stereo not drawn) [Compound 20] | 137 | 10^-4 mol.l^-1 | 50 (± 5) % | > 141 | 124 | CC50 at 72 h [5, 8]: 126 µM |
| COc1ccc(CNc2nc(F)nc3c2ncn3C2CCCO2)c(O)c1 (stereo not drawn) [Compound 21] | 132 | 10^-4 mol.l^-1 | 35 (± 9.5) % | 158 | 147 | – |
| CC(C)=CCNc1nc(F)nc2c1ncn2C1CCCCO1 (stereo not drawn) [Compound 69] | 153 | 10^-4 mol.l^-1 | 108 (± 13) % | 142 | 146 | – |
| COc1cc(CNc2nc(F)nc3c2ncn3C2CCCO2)ccc1O (stereo not drawn) [Compound 43, 2-Fluoro-6-[(4-hydroxy-3-methoxybenzyl)amino]-9-(tetrahydrofuran-2-yl)-9H-purine] | – | – | – | – | – | IC50 at 72 h [2]: > 167 µM; Emax [3]: 55%; IC50 at 72 h [4]: > 167 µM; IC50 at 72 h [5, 7]: > 167 µM |
| Oc1ccc(CNc2nc(F)nc3c2ncn3C2CCCO2)cc1O (stereo not drawn) [Compound 33] | > 167 | 10^-4 mol.l^-1 | 71.3 (± 17) % | > 167 | > 167 | – |
| COc1cc(O)cc(OC)c1CNc1nc(F)nc2c1ncn2C1CCCO1 (stereo not drawn) [Compound 42] | > 167 | 10^-4 mol.l^-1 | 22 (± 4) % | > 167 | > 167 | – |
| Cc1ccc(CNc2nc(F)nc3c2ncn3C2CCCCO2)o1 (stereo not drawn) [Compound 60, 2-Fluoro-6-[(5-methylfurfuryl)amino]-9-(tetrahydro-2H-pyran-2-yl)-9H-purine] | – | – | – | – | – | IC50 at 72 h [2]: > 167 µM; Emax [3]: 123%; IC50 at 72 h [4]: > 167 µM; IC50 at 72 h [5, 7]: > 167 µM |
| CC(CO)CCNc1nc(F)nc2c1ncn2C1CCCO1 (stereo not drawn) [Compound 11] | > 167 | 10^-4 mol.l^-1 | 125 (± 12) % | 139 | 146 | – |
| COc1cccc(CNc2ncnc3nc[nH]c23)c1 [6-(3-methoxybenzylamino)purine, reference compound] | – | – | – | – | – | root elongation and branching (in words) ([1]; already in micromolar concentration): significantly inhibits root elongation and branching |
| COc1ccc(CNc2nc(F)nc3c2ncn3C2CCCCO2)cc1 (stereo not drawn) [Compound 68, 2-Fluoro-6-[(4-methoxybenzyl)amino]-9-(tetrahydro-2H-pyran-2-yl)-9H-purine] | – | – | – | – | – | IC50 at 72 h [2]: > 167 µM; Emax [3]: 155%; IC50 at 72 h [4]: > 167 µM; IC50 at 72 h [5, 7]: > 167 µM; Shoot dry mass (%) [10^-6 mol.l^-1 Kin = 100%] [6]: 118.6 (± 9) %; Concentration with highest activity ([6]; shoot dry mass): 10^-6 mol.1^-1 |
| COc1ccc(CNc2nc(F)nc3c2ncn3C2CCCO2)cc1OC (stereo not drawn) [Compound 39] | > 167 | 10^-4 mol.l^-1 | 126 (± 21) % | > 167 | > 167 | – |
| Cc1cccc(CNc2nc(F)nc3c2ncn3C2CCCO2)c1O (stereo not drawn) [Compound 49] | 161 | 10^-4 mol.l^-1 | 16.4 (± 3) % | > 167 | 156 | – |
